The values that follow come from BindingDB's records for doi:10.1016/s0960-894x(98)00417-x (Affymax Research Institute, 1999).

What is called Ki is a measure of affinity in units of concentration, obtained from inhibition or displacement. Higher therefore signals a looser hold on the target. The IC50 is the point on the concentration scale where inhibition reaches its midpoint. A lower IC50 goes with greater potency in that assay.

The target of assay [1] is Mannose-6-phosphate isomerase (Candida albicans) (UniProt P34948). Put plainly: Compound was evaluated for the inhibition constant against phosphomannose isomerase enzyme of Candida albicans (CaPMI).
Mannose-6-phosphate isomerase (Candida albicans), sequence (P34948 whole entry, looked up): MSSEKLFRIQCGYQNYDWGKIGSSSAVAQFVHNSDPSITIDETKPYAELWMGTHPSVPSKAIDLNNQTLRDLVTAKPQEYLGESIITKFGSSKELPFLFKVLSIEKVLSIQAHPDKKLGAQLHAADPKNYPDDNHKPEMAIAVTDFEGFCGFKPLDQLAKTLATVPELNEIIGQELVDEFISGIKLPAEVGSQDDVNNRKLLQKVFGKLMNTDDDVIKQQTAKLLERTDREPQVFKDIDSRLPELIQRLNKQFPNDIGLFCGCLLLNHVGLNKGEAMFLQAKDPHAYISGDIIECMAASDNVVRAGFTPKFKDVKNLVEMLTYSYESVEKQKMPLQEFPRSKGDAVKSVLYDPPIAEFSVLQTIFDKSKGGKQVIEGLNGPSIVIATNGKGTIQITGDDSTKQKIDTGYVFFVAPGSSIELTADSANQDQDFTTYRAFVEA
Assay [2] shares this target. Put plainly: Compound was tested for percentage inhibition of phosphomannose isomerase enzyme of Candida albicans (CaPMI).

In turn, `NC(=O)C1(NC(=O)CCCOc2ccc(Cl)cc2Cl)Cc2ccccc2C1` [2-[4-(2,4-Dichloro-phenoxy)-butyrylamino]-indan-2-carboxylic acid amide] displayed a Ki in assay [1] of 4 µM.
In assay [2], `O=C(CCCSc1ccc(Cl)c(Cl)c1)NC1(C(=O)NO)Cc2ccccc2C1` [2-[4-(3,4-Dichloro-phenylsulfanyl)-butyrylamino]-indan-2-carboxylic acid hydroxyamide] gave an IC50 of 6 µM. Moreover, the affinity in assay [1] corresponds to a Ki of 4 µM.
